Reference: patent publication US4605643A, “Ovine GRF” (The Salk Institute for Biological Studies, priority 1984, dated 1986)

Test system: rat pituitary cells
Test: in vitro release of growth hormone from cultured rat pituitary cells (ir GH by radioimmunoassay), side-by-side with hGRF(1-44)-NH2
Format: cell-based
Procedure: To determine the effectiveness of the peptide to promote the release of growth hormone, in vitro assays are carried out using synthetic hGRF(1-44)-NH2 in side-by-side comparison with equimolar concentrations of the extracted and purified oGRF(1-44) of Example II. hGRF thus serves as a GRF Reference Standard having a known effectiveness to promote the release of growth hormone from rat pituitary cells. Cultures are used which include cells of rat pituitary glands removed some four to five days previously. Both cultures of a defined standard medium and cultures which are considered optimal for the secretion of growth hormone are used for the comparative testing, in the general manner described in Brazeau, et al. Regulatory Peptides, 1, 255, 1981. Incubation with the substance to be tested is carried out for 3 to 4 hours, and aliquots of the culture medium are removed and processed to measure their contents in immunoreactive GH(ir GH) by a well-characterized radioimmunoassay.

[1] = equimolar ratios, incubation 3 to 4 hours, ir GH in culture medium by RIA
[2] = multiple doses factorial design experiments

CC[C@H](C)[C@H](NC(=O)[C@H](C)NC(=O)[C@H](CC(=O)O)NC(=O)[C@H](C)NC(=O)[C@@H](N)Cc1ccc(O)cc1)C(=O)N[C@@H](Cc1ccccc1)C(=O)N[C@H](C(=O)N[C@@H](CC(N)=O)C(=O)N[C@@H](CO)C(=O)N[C@@H](Cc1ccc(O)cc1)C(=O)N[C@@H](CCCNC(=N)N)C(=O)N[C@@H](CCCCN)C(=O)N[C@H](C(=O)N[C@@H](CC(C)C)C(=O)NCC(=O)N[C@@H](CCC(N)=O)C(=O)N[C@@H](CC(C)C)C(=O)N[C@@H](CO)C(=O)N[C@@H](C)C(=O)N[C@@H](CCCNC(=N)N)C(=O)N[C@@H](CCCCN)C(=O)N[C@@H](CC(C)C)C(=O)N[C@@H](CC(C)C)C(=O)N[C@@H](CCC(N)=O)C(=O)N[C@@H](CC(=O)O)C(=O)N[C@H](C(=O)N[C@@H](CCSC)C(=O)N[C@@H](CC(N)=O)C(=O)N[C@@H](CCCNC(=N)N)C(=O)N[C@@H](CCC(N)=O)C(=O)N[C@@H](CCC(N)=O)C(=O)NCC(=O)N[C@@H](CCC(=O)O)C(=O)N[C@@H](CCCNC(=N)N)C(=O)N[C@@H](CC(N)=O)C(=O)N[C@@H](CCC(N)=O)C(=O)N[C@@H](CCC(=O)O)C(=O)N[C@@H](CCC(N)=O)C(=O)NCC(=O)N[C@@H](C)C(=O)N[C@@H](CCCCN)C(=O)N[C@H](C(=O)N[C@@H](CCCNC(=N)N)C(=O)N[C@@H](CC(C)C)C(N)=O)C(C)C)[C@@H](C)CC)[C@@H](C)CC)[C@@H](C)O [oGRF(1-44)]
intrinsic biological activity (release of growth hormone) compared with synthetic hGRF(1-44)-NH2 [1]: full intrinsic biological activity of the synthetic peptide
potency (release of growth hormone) compared with synthetic hGRF(1-44)-NH2 [1]: close to the same potency
intrinsic activity compared with hGRF(1-44)-NH2 [2]: about the same intrinsic activity as hGRF(1-44)-NH2
specific activity relative to hGRF(1-44)-NH2 [2]: about 70 % of hGRF(1-44)-NH2
